{
  "source": "paper PMC10115881",
  "about": "“Disrupting the α-synuclein-ESCRT interaction with a peptide inhibitor mitigates neurodegeneration in preclinical models of Parkinson’s disease” (Nature Communications, 2023)",
  "key": {"endogenous a-syn": {"system": "endogenous a-syn", "experiment": "Endogenous a-syn immunofluorescence in rat cortical neurons", "type": "cell-based", "description": "Pregnant rats (E17) of the Sprague-Dawley strain were purchased from Envigo. Embryos were surgically removed from the mothers and cortices dissected in Hanks Balanced salt solution (Gibco). The meninges were removed, and cells were dissociated using a papain dissociation system (Worthington) before being resuspended in Neurobasal medium A supplemented with antibiotic-antimycotic solution (Gibco), L-glutamine substitute (GlutaMAX™; Gibco) and factor B27 (Gibco). […]\nAfter fixation, cells were permeabilized with 0.2% Triton-X-100 for 15 min, washed three times with PBS and then incubated with blocking solution (1% BSA, 22.52 mg/mL glycine, 0.1% Tween-20 in PBS or 0.4% saponin, 1% BSA, and 5% goat or donkey serum in PBS) for 1 h. […] Following another three washes with PBS, nuclei were counterstained with DAPI (ThermoFisher) and then coverslips were mounted on slides using Dako fluorescence mounting medium (Agilent) and sealed using clear nail varnish.\n(§1) Confocal images of immunofluorescent staining were acquired with a Zeiss LSM880 confocal microscope equipped with 405, 488, 555, and 639 nm laser lines. All images were taken within the linear range at constant gain and pinhole settings at optimal resolution settings determined by the software. […]"}, "[1]": {"system": "LAMP1 in iPSC-derived dopaminergic neurons", "experiment": "LAMP1 fluorescence in iPSC-derived dopaminergic neurons", "type": "cell-based, human", "settings": "A53T a-syn iPSC-derived dopaminergic neurons", "description": "A53T a-syn iCell Dopa neurons (catalog #R1109) and isogenic control iCell Dopa neurons (catalog #R1088) were purchased from Fujifilm Cellular Dynamics (Madison, WI, USA) and cultured as per the manufacturer’s instructions. Briefly, cells were plated in complete maintenance medium provided by the manufacturer on poly-L-ornithine/laminin coated μ plates (ibidi). Cells recovered from thawing for 24 h and then were transduced with AAV-Scramble1.3-RFP or AAV-PDpep1.3-RFP at MOI of 3000 for 48 h at which time media was completely changed. Cells were fixed using 4% PFA at 7 days post-plating.\nas §1\nConfocal images of primary cortical neurons, iPSC-derived dopaminergic neurons, and LAMP1 staining within the SN were processed using Imaris software (Oxford instruments). […] Mean pixel intensity per GFP^+ cell (for experiments using GFP-tagged peptides) or RFP^+ cell (for experiments using RFP-tagged peptides) was calculated for a-syn or LAMP1 signal using the software’s surfaces module. […]"}},
  "data": [
    {"sequence": "DEEIERQLKALG [PDpep1.3]", "values": [
      {"measurement": "Effect on endogenous a-syn fluorescence", "setting": "endogenous a-syn", "value": "reduced fluorescence intensity"},
      {"measurement": "Effect on LAMP1 levels, iPSC neurons", "setting": "[1]", "value": "LAMP1 levels to those of isogenic controls"}
    ]}
  ]
}
